Reference: patent US20240376094A2, “SELECTIVE BCL-XL PROTAC COMPOUNDS AND METHODS OF USE” (Les Laboratoires Servier, priority 2021, published 2024)

Tests used:
MOLT-4 cells = experiment: MOLT-4 cell viability, MTT assay; format: cell-based; settings: Homo sapiens, MOLT-4, 48 h
Description: The MTT colorimetric assay is based on the mitochondrial reduction of tetrazolium salt by living cells. The viable cell number is proportional to the production of formazan salts, which can be read spectrophotometrically at 540 nm. The CTG luminescent assay (CellTiter GLO, Promega) is based on a reagent which lyses cells and measures total adenosine triphosphate (ATP) content. The viable cell number is proportional to the production of ATP.
MOLT-4 cells were purchased from ATCC and cultivated in RPMI 1640 supplemented with 10% heat inactivated fetal bovine serum, penicillin (100 IU/mi), streptomycin (100 μg/ml) and L-glutamine (2 mM). Cells were cultured at 37° C. in a humidified atmosphere containing 5% […].
For MTT assay, cells were seeded in 96 microwell plates (150 μL per well) and exposed to the compounds for 48 h (3.16 fold serially diluted; 9 concentrations each, triplicates). At the end of incubation time, 15 μL of MTT solution (5 mg/ml) were added per well and the cells were incubated for another 4 h. Then, 100 μL of 10% Sodium Dodecyl Sulfate (SDS)/HCl 10 mM were added per well and the plate was incubated overnight, before measurement of optical density at 540 nm.
IC50, were calculated using standard four-parametric curve fitting. IC50 is defined as the compound concentration at which the MTT or CTG signal is reduced to 50% of that measured for the control. Results shown in Table 14 represent the mean of at least 2 independent experiments.

Bcl-xL = biological target: T1, Bcl-xL (Homo sapiens, UniProt Q07817); experiment: HCT116 Bcl-xL degradation, capillary-based immunoassay (WES); format: cell-based; settings: for DC50: HCT116, 24 h, 9-point serial dilution; for remaining activity at 0.01 µM / remaining activity at 0.1 µM: HCT-116, 24 h, % of untreated cells; for remaining activity at 0.01 µM: HCT116, 10 nM; for remaining activity at 0.1 µM: HCT116, 100 nM
T1 construct: Measured levels of Bcl-xL protein of HCT116 cells treated with the tested compounds; host or cells: HCT116
T1 sequence (Q07817 whole entry): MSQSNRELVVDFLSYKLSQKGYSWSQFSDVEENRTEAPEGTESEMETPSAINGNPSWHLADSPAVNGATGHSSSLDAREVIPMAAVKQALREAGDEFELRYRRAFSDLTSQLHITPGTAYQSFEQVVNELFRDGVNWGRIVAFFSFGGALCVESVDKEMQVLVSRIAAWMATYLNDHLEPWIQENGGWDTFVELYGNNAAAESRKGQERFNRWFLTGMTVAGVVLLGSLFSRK
Method in brief: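 Bcl-xL protein level by capillary WES immunoassay in HCT116 lysates, as % of untreated after cofilin normalization. Compound exposure was 24 h at 10 and 100 nM and/or a 9-point series, in quadruplicate. Four-parameter fitting gave the DC50.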

| IC50 (MOLT-4 cells) | DC50 (Bcl-xL) | remaining activity at 0.01 µM (Bcl-xL) | remaining activity at 0.1 µM (Bcl-xL) | SMILES |
| --- | --- | --- | --- | --- |
| 0.398 nM | > 316 nM | 48% | 43% | Cc1c(Nc2nc3ccccc3s2)nnc2c1CCCN2c1ccc(-c2cnn(CC34CC5(C)CC(C)(C3)CC(OCCN(C)CCCCCCCCOc3ccc6c(c3)C(=O)N(C3CCC(=O)NC3=O)C6=O)(C5)C4)c2C)c(C(=O)O)n1 (stereo not shown) [Example 10, 6-[3-(1,3-benzothiazol-2-ylamino)-4-methyl-6,7-dihydro-5H-pyrido[2,3-c]pyridazin-8-yl]-3-[1-[[3-[2-[8-[2-(2,6-dioxo-3-piperidyl)-1,3-dioxo-isoindolin-5-yl]oxyoctyl-methyl-amino]ethoxy]-5,7-dimethyl-1-adamantyl]methyl]-5-methyl-pyrazol-4-yl]pyridine-2-carboxylic acid] |
| 2.72 nM | 6.6 nM | 52% | 52% | Cc1ncsc1-c1ccc(CNC(=O)[C@@H]2C[C@@H](O)CN2C(=O)[C@@H](NC(=O)CCCC(=O)N2CCN(CC#Cc3ccc(OCCCc4sc(N5CCCc6c5nnc(Nc5nc7ccccc7s5)c6C)nc4C(=O)O)c(F)c3)CC2)C(C)(C)C)cc1 [Example 18, 2-[3-(1,3-benzothiazol-2-ylamino)-4-methyl-6,7-dihydro-5H-pyrido[2,3-c]pyridazin-8-yl]-5-[3-[2-fluoro-4-[3-[4-[5-[[(1S)-1-[(2S,4R)-4-hydroxy-2-[[4-(4-methylthiazol-5-yl)phenyl]methylcarbamoyl]pyrrolidine-1-carbonyl]-2,2-dimethyl-propyl]amino]-5-oxo-pentanoyl]piperazin-1-yl]prop-1-ynyl]phenoxy]propyl] thiazole-4-carboxylic acid] |
| 4.49 nM |  | 51% | 31% | Cc1ncsc1-c1ccc(CNC(=O)[C@@H]2C[C@@H](O)CN2C(=O)[C@@H](NC(=O)CCCCCCC(=O)N2CCN(CC#Cc3ccc(OCCCc4sc(N5CCCc6c5nnc(Nc5nc7ccccc7s5)c6C)nc4C(=O)O)c(F)c3)CC2)C(C)(C)C)cc1 [Example 20, 2-[3-(1,3-benzothiazol-2-ylamino)-4-methyl-6,7-dihydro-5H-pyrido[2,3-c]pyridazin-8-yl]-5-[3-[2-fluoro-4-[3-[4-[8-[[(1S)-1-[(2S,4R)-4-hydroxy-2-[[4-(4-methylthiazol-5-yl)phenyl]methylcarbamoyl]pyrrolidine-1-carbonyl]-2,2-dimethyl-propyl]amino]-8-oxo-octanoyl]piperazin-1-yl]prop-1-ynyl]phenoxy]propyl]thiazole-4-carboxylic acid] |
| 669 nM |  | 60% | 49% | CNCC#Cc1ccc(OCCCc2sc(N(CCCc3cn(CCOCCOCCOCCNC(=O)COc4cccc5c4C(=O)N(C4CCC(=O)NC4=O)C5=O)nn3)c3cc(C)c(Nc4nc5ccccc5s4)nn3)nc2C(=O)O)c(F)c1 (stereo not shown) [Example 27, 2-[[6-(1,3-benzothiazol-2-ylamino)-5-methyl-pyridazin-3-yl]-[3-[1-[2-[2-[2-[2-[[2-[2-(2,6-dioxo-3-piperidyl)-1,3-dioxo-isoindolin-4-yl]oxyacetyl]amino]ethoxy]ethoxy]ethoxy]ethyl]triazol-4-yl]propyl]amino]-5-[3-[2-fluoro-4-[3-(methylamino)prop-1-ynyl]phenoxy]propyl]thiazole-4-carboxylic acid] |
| 8.63 nM |  | 81% | 46% | Cc1cc(N(CCCCCn2cc(COCCOCCOCC(=O)Nc3cccc4c3CN(C3CCC(=O)NC3=O)C4=O)nn2)c2ccc(-c3cnn(CC45CC6(C)CC(C)(C4)CC(OCCN(C)C)(C6)C5)c3C)c(C(=O)O)n2)nnc1Nc1nc2ccccc2s1 (stereo not shown) [Example 28, 6-[[6-(1,3-benzothiazol-2-ylamino)-5-methyl-pyridazin-3-yl]-[5-[4-[2-[2-[2-[[2-(2,6-dioxo-3-piperidyl)-1-oxo-isoindolin-4-yl]amino]-2-oxo-ethoxy]ethoxy]ethoxymethyl]triazol-1-yl]pentyl]amino]-3-[1-[[3-[2-(dimethylamino)ethoxy]-5,7-dimethyl-1-adamantyl]methyl]-5-methyl-pyrazol-4-yl]pyridine-2-carboxylic acid] |
| 16.4 nM | 7.49 nM | 46% | 16% | Cc1cc(N(CCCCCn2cc(COCCOCCNc3cccc4c3C(=O)N(C3CCC(=O)NC3=O)C4=O)nn2)c2ccc(-c3cnn(CC45CC6(C)CC(C)(C4)CC(OCCN(C)C)(C6)C5)c3C)c(C(=O)O)n2)nnc1Nc1nc2ccccc2s1 (stereo not shown) [Example 61, 6-[[6-(1,3-benzothiazol-2-ylamino)-5-methyl-pyridazin-3-yl]-[5-[4-[2-[2-[[2-(2,6-dioxo-3-piperidyl)-1,3-dioxo-isoindolin-4-yl]amino]ethoxy]ethoxymethyl]triazol-1-yl]pentyl]amino]-3-[1-[[3-[2-(dimethylamino)ethoxy]-5,7-dimethyl-1-adamantyl]methyl]-5-methyl-pyrazol-4-yl]pyridine-2-carboxylic acid] |
| 24.1 nM | 13.6 nM | 47% | 7% | Cc1cc(N(CCCCCn2cc(COCCOCCOCCNc3cccc4c3C(=O)N(C3CCC(=O)NC3=O)C4=O)nn2)c2ccc(-c3cnn(C[C@@]45C[C@]6(C)C[C@](C)(C4)C[C@](OCCN(C)C)(C6)C5)c3C)c(C(=O)O)n2)nnc1Nc1nc2ccccc2s1 (stereo partly shown) [Example 62, 6-[[6-(1,3-benzothiazol-2-ylamino)-5-methyl-pyridazin-3-yl]-[5-[4-[2-[2-[2-[[2-(2,6-dioxo-3-piperidyl)-1,3-dioxo-isoindolin-4-yl]amino]ethoxy]ethoxy]ethoxymethyl]triazol-1-yl]pentyl]amino]-3-[1-[[3-[2-(dimethylamino)ethoxy]-5,7-dimethyl-1-adamantyl]methyl]-5-methyl-pyrazol-4-yl]pyridine-2-carboxylic acid] |
| 86.4 nM | 53 nM | 61% | 39% | Cc1cc(N(CCCCCn2cc(COCCOCCOCCNC(=O)COc3cccc4c3C(=O)N(C3CCC(=O)NC3=O)C4=O)nn2)c2ccc(-c3cnn(CC45CC6(C)CC(C)(C4)CC(OCCN(C)C)(C6)C5)c3C)c(C(=O)O)n2)nnc1Nc1nc2ccccc2s1 (stereo not shown) [Example 63, 6-[[6-(1,3-benzothiazol-2-ylamino)-5-methyl-pyridazin-3-yl]-[5-[4-[2-[2-[2-[[2-[2-(2,6-dioxo-3-piperidyl)-1,3-dioxo-isoindolin-4-yl]oxyacetyl]amino]ethoxy]ethoxy]ethoxymethyl]triazol-1-yl]pentyl]amino]-3-[1-[[3-[2-(dimethylamino)ethoxy]-5,7-dimethyl-1-adamantyl]methyl]-5-methyl-pyrazol-4-yl]pyridine-2-carboxylic acid] |
| 0.311 nM | 3.08 nM |  |  | Cc1c(Nc2nc3ccccc3s2)nnc2c1CCCN2c1ccc(-c2cnn(CC34CC5(C)CC(C)(C3)CC(OCCN(C)CCCCCCCCCCCCOc3ccc6c(c3)C(=O)N(C3CCC(=O)NC3=O)C6=O)(C5)C4)c2C)c(C(=O)O)n1 (stereo not shown) [Example 140, 6-[3-(1,3-benzothiazol-2-ylamino)-4-methyl-6,7-dihydro-5H-pyrido[2,3-c]pyridazin-8-yl]-3-[1-[[3-[2-[12-[2-(2,6-dioxo-3-piperidyl)-1,3-dioxo-isoindolin-5-yl]oxydodecyl-methyl-amino]ethoxy]-5,7-dimethyl-1-adamantyl]methyl]-5-methyl-pyrazol-4-yl]pyridine-2-carboxylic acid] |
